Experimental data published in ChEMBL document CHEMBL1154288, “The discovery and unique pharmacological profile of RO4938581 and RO4882224 as potent and selective GABAA alpha5 inverse agonists for the treatment of cognitive dysfunction” (Bioorg Med Chem Lett, 2009).
In brackets after ≈: the same amount, converted by molar mass.

Assays:
[1] = Solubility by lypophlisation solubility assay; type: physicochemical
[2] = biological target: Gamma-aminobutyric acid receptor subunit alpha-3 (Rattus norvegicus) (UniProt P20236); experiment: Inverse agonist activity at rat GABA alpha-3-beta-3-gamma-2 receptor expressed in HEK293 cells by electrophysiology assay relative to GABA; type: functional, cell-based
[3] = Ratio of drug level in brain to plasma in rat; type: ADME
[4] = test system: HEK293; experiment: Selectivity ratio of Ki for cloned human GABA alpha-1-beta-3-gamma-2 receptor expressed in HEK293 cells to Ki for cloned human GABA alpha-5-beta-3-gamma-2 receptor expressed in HEK293 cells; type: cell-based
[5] = Oral bioavailability in rat; type: ADME, organism-based; conditions: in vivo
[6] = biological target: GABA A receptor alpha-5/beta-3/gamma-2 (Rattus norvegicus) (UniProt P18508+P19969+P63079); experiment: Inverse agonist activity at rat GABA alpha-5-beta-3-gamma-2 receptor expressed in HEK293 cells by electrophysiology assay relative to GABA; type: functional, cell-based
[7] = biological target: GABA-A receptor; alpha-1/beta-2/gamma-2 (Rattus norvegicus) (UniProt P18508+P62813+P63138); experiment: Inverse agonist activity at rat GABA alpha-1-beta-3-gamma-2 receptor expressed in HEK293 cells by electrophysiology assay relative to GABA; type: functional, cell-based
[8] = Lipophilicity, log D at pH 7.4; type: physicochemical; conditions: buffer
[9] = Permeability by PAMPA; type: ADME; conditions: read-out: permeability
[10] = Volume of distribution at steady state in rat; type: ADME, organism-based; conditions: in vivo, read-out: Vdss
[11] = Clearance in rat; type: ADME, organism-based; conditions: in vivo
[12] = test system: HEK293; experiment: Selectivity ratio of Ki for cloned human GABA alpha-2-beta-3-gamma-2 receptor expressed in HEK293 cells to Ki for cloned human GABA alpha-5-beta-3-gamma-2 receptor expressed in HEK293 cells; type: cell-based
[13] = Half life in rat; type: ADME, organism-based; conditions: in vivo
[14] = test system: HEK293; experiment: Selectivity ratio of Ki for cloned human GABA alpha-3-beta-3-gamma-2 receptor expressed in HEK293 cells to Ki for cloned human GABA alpha-5-beta-3-gamma-2 receptor expressed in HEK293 cells; type: cell-based
[15] = biological target: T1, GABA-A receptor; alpha-3/beta-3/gamma-2 (Homo sapiens, UniProt P18507+P28472+P34903); experiment: Displacement of [3H]Flumazenil from cloned human GABA alpha-3-beta-3-gamma-2 receptor expressed in HEK293 cells; type: cell-based
T1 sequence (P18507 whole entry): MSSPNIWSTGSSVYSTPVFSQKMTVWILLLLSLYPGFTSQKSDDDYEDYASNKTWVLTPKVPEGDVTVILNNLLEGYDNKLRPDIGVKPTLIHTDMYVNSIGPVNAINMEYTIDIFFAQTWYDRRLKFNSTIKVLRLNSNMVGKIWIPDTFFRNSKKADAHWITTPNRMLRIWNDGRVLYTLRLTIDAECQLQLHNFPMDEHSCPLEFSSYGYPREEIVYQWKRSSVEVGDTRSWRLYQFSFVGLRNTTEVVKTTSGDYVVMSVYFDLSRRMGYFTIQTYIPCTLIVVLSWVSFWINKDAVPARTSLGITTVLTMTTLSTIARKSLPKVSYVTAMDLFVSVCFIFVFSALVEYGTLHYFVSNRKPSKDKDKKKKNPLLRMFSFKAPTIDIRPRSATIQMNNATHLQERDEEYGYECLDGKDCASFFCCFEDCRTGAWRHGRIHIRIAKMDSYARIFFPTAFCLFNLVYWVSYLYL
T1 sequence (P28472 whole entry): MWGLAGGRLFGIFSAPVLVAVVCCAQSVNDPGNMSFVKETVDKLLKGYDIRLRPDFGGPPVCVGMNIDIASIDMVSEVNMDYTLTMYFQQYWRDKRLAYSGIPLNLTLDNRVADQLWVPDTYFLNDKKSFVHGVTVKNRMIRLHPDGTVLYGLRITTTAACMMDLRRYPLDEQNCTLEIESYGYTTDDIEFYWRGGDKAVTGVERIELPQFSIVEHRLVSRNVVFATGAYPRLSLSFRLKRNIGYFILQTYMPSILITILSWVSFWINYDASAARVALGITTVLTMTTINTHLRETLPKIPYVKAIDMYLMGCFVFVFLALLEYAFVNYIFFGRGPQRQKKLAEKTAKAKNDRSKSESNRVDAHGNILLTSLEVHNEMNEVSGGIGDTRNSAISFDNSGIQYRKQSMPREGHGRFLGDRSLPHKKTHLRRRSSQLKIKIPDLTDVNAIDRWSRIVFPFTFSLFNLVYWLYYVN
T1 sequence (P34903 whole entry): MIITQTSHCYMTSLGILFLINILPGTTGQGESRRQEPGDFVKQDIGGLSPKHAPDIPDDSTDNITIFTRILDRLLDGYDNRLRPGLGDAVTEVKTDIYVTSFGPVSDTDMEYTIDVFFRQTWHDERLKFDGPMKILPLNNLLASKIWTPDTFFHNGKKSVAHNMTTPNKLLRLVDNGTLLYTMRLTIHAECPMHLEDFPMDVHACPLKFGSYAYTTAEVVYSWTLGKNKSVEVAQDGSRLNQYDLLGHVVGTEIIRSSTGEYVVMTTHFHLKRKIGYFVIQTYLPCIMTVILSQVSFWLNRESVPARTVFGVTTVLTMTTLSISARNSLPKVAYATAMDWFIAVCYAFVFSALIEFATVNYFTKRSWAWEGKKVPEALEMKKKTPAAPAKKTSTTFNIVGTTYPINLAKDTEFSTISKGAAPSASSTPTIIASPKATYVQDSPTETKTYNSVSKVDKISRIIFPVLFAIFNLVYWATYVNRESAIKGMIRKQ

[16] = biological target: T2, GABA-A receptor; alpha-2/beta-3/gamma-2 (Homo sapiens, UniProt P18507+P28472+P47869); experiment: Displacement of [3H]Flumazenil from cloned human GABA alpha-2-beta-3-gamma-2 receptor expressed in HEK293 cells; type: cell-based
T2 sequence (P18507 whole entry): T1 sequence (P18507 whole entry)
T2 sequence (P28472 whole entry): T1 sequence (P28472 whole entry)
T2 sequence (P47869 whole entry): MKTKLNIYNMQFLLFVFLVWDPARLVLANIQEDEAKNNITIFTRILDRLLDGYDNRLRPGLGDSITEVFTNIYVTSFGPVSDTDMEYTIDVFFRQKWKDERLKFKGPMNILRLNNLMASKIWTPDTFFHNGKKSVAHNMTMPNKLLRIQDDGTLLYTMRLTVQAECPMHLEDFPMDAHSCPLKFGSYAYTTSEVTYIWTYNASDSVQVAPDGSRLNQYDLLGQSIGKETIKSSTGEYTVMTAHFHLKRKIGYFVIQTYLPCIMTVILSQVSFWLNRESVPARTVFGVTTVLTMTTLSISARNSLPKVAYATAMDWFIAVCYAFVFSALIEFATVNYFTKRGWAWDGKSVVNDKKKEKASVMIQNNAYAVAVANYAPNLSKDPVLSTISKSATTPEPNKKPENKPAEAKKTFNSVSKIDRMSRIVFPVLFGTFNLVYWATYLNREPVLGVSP

Sequence of Gamma-aminobutyric acid receptor subunit alpha-3 (Rattus norvegicus) (P20236 whole entry): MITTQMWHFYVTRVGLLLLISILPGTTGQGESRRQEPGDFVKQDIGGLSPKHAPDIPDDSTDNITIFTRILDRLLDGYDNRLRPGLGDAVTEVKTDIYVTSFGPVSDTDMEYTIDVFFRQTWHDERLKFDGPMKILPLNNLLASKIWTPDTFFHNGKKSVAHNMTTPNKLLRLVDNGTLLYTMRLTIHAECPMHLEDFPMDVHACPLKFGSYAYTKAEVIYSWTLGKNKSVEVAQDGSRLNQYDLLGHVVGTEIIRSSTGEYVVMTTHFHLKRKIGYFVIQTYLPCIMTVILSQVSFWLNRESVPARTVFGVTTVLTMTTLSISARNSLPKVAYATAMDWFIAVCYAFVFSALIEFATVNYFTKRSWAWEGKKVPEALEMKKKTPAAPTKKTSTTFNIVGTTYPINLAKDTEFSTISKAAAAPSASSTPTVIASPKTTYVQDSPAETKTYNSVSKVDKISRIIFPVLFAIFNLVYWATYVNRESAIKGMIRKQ

Work on `Cc1ncn2c1Cn1ncnc1-c1cc(Cl)ccc1-2` yielded a solubility [1] of 0.013 mg/mL (≈ 47.8 µM), an Efficacy [2] of 4% and a Kp [3] of 0.6. The Ratio Ki [4] was 6, the bioavailability [5] was 52% and the Efficacy [6] was -41%. For the same molecule, the Efficacy [7] was -11%, the logD [8] was 2 and the Papp [9] was 89 nm/s. It also gave a Vd [10] of 1.9 L/kg, a clearance [11] of 0.432 L/h/kg and a Ratio Ki [12] of 72. The half-life [13] was 3.4 h, the Ratio Ki [14] was 88 and the Ki [15] was 0.265 µM. It also gave a Ki [16] of 0.219 µM.
Work on `Clc1ncn2c1Cn1ncnc1-c1cc(Br)ccc1-2` yielded a solubility [1] of 0.009 mg/mL (≈ 26.7 µM), an Efficacy [2] of -14% and a Ratio Ki [4] of 24. It also gave a bioavailability [5] of 56%, an Efficacy [6] of -48% and an Efficacy [7] of -13%. For the same molecule, the logD [8] was 2.2, the Papp [9] was 70 nm/s and the Vd [10] was 1.3 L/kg. It also gave a clearance [11] of 0.582 L/h/kg, a Ratio Ki [12] of 18 and a half-life [13] of 1.6 h. It also gave a Ratio Ki [14] of 7, a Ki [15] of 0.0088 µM and a Ki [16] of 0.024 µM.
In the case of `Clc1ccc2c(c1)-c1ncnn1Cc1c(Cl)ncn1-2`, the solubility [1] is reported as 0.027 mg/mL (≈ 92.4 µM), the Efficacy [2] is reported as -11% and the Kp [3] is reported as 0.2. The Ratio Ki [4] was 7, the bioavailability [5] was 81% and the Efficacy [6] was -40. The Efficacy [7] was -3%, the logD [8] was 1.8 and the Papp [9] was 65 nm/s. It also gave a Vd [10] of 0.5 L/kg, a clearance [11] of 0.744 L/h/kg and a Ratio Ki [12] of 12. It also gave a half-life [13] of 0.6 h, a Ratio Ki [14] of 7 and a Ki [15] of 0.014 µM. For the same molecule, the Ki [16] was 0.024 µM.
Molecule `FC(F)c1ncn2c1Cn1ncnc1-c1cc(Br)ccc1-2` has a solubility [1] of 0.019 mg/mL (≈ 54 µM), an Efficacy [2] of 2% and a Kp [3] of 0.4. For the same molecule, the bioavailability [5] was 89%, the Efficacy [6] was -35% and the Efficacy [7] was -3%. The logD [8] was 1.9, the Papp [9] was 70 nm/s and the Vd [10] was 1.2 L/kg. The clearance [11] was 0.174 L/h/kg, the half-life [13] was 4.9 h and the Ki [15] was 0.08 µM. It also gave a Ki [16] of 0.185 µM.
